Laboratory results published in patent US11352359B2, “PI3K protein kinase inhibitors” (Rhizen Pharmaceuticals SA, priority 2013, dated 2022).

Key:
PI3Kγ = PI3Kγ (Homo sapiens, UniProt P48736); test: Fluorescent determination of PI3Kinase enzyme activity (HTRF), PI3Kγ; assay type: biochemical; conditions: for inhibition at 0.1 µM: 100 nM (underlined values: 300 nM)
From the text: (§1) Fluorescent Determination of PI3Kinase Enzyme Activity
(§2) Phosphoinositide 3 kinases (PI3K) belong to a class of Lipid kinases that play a critical role in the regulation of several key cellular processes. The PI3K are capable of phosphorylating the 3-hydroxy position of phosphoinositols thereby generating second messengers involved in downstream signalling events. The homogenous time resolved fluorescence (HTRF) assay allows detection of 3,4,5-triphosphate (PIP3) formed as a result of phosphorylation of phosphotidylinositol 4,5-biphosphate (PIP2) by PI3K isoforms such as α, […], γ or δ.
(§3) PI3K isoform activity for α, β, γ or δ is to be determined using a PI3K human HTRF™ Assay Kit (Millipore, Billerica, Mass.) with modifications. All incubations were carried out at room temperature. Briefly, 0.5 μl of 40× inhibitor (in 100% DMSO) or 100% DMSO were added to each well of a 384-well black plate (Greiner Bio-One, Monroe, N.C.) containing 14.5 μl 1× reaction buffer/PIP2 (10 mM MgCl2, 5 mM DTT, 1.38 μM PIP2) mix with or without enzyme and incubated for 10 min. After the initial incubation, 5 μl/well of 400 μM ATP was added and incubated for an additional 30 minutes. Reaction was terminated by adding 5 μl/well stop solution (Millipore, Billerica, Mass.). Five microliters of detection mix (Millipore, Billerica, Mass.) were then added to each well and was incubated for 6-18 h in the dark. HRTF ratio was measured on a microplate reader (BMG Labtech, Germany) at an excitation wavelength of 337 nm and emission wavelengths of 665 and 620 nm with an integration time of 400 μsec. Data was analyzed using Graphpad Prism (Graphpad software; San Diego Calif.) for IC50 determination).

PI3Kδ = PI3Kδ (Homo sapiens, UniProt O00329); test: Fluorescent determination of PI3Kinase enzyme activity (HTRF), PI3Kδ; assay type: biochemical; conditions: for inhibition at 0.1 µM: 100 nM (underlined values: 300 nM)
Chain of PI3Kδ (O00329 whole entry): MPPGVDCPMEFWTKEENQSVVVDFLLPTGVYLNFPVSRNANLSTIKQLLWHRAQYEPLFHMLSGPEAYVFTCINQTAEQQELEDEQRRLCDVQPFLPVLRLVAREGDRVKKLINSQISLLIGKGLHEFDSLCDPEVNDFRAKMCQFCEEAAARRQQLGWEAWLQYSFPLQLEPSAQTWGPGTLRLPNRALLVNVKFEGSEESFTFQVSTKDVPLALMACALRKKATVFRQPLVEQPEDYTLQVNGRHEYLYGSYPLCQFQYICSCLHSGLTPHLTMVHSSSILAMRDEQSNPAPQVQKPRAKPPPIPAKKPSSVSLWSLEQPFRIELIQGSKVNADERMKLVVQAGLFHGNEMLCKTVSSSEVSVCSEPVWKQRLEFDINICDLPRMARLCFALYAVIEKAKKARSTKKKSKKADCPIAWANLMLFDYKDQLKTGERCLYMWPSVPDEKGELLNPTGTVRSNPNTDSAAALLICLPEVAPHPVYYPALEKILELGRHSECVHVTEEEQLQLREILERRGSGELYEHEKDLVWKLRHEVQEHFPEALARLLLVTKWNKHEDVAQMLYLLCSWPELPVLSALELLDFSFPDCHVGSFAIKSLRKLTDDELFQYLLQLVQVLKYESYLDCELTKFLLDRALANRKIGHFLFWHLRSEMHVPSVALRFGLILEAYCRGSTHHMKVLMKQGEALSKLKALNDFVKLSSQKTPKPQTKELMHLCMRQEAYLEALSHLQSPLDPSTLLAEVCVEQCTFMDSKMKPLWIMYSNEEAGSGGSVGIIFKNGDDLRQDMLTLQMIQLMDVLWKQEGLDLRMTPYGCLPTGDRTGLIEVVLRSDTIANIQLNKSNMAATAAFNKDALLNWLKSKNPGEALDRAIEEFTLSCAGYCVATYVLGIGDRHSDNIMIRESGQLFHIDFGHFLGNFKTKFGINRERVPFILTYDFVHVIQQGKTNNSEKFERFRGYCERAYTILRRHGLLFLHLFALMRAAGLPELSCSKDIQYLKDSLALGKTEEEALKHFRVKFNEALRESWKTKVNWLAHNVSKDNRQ
Chain of PI3Kδ (P27986 whole entry partner): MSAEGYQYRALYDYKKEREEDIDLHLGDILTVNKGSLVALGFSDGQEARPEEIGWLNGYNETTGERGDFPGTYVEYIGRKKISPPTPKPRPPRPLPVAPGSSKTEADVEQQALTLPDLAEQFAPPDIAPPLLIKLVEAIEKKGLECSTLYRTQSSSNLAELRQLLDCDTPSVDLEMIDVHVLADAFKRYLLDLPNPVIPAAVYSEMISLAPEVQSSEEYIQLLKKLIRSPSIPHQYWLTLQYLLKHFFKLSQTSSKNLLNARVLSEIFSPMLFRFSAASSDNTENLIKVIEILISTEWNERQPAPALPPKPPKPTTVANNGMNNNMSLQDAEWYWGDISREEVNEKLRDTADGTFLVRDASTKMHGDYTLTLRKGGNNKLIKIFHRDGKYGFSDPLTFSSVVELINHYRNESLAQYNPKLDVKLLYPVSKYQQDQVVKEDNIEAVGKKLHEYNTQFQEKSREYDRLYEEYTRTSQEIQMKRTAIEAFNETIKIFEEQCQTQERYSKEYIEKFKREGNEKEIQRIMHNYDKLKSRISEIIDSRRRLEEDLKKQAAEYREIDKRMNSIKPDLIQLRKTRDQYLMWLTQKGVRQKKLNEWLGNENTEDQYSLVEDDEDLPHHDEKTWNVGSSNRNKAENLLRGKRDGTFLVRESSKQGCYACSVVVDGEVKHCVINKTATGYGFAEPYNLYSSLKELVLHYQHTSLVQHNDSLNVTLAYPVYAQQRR
From the text: as §1, §2, §3

PI3Kα = PI3Kα (Homo sapiens, UniProt P42336); test: Fluorescent determination of PI3Kinase enzyme activity (HTRF), PI3Kα; assay type: biochemical
Chain of PI3Kα (P42336 whole entry): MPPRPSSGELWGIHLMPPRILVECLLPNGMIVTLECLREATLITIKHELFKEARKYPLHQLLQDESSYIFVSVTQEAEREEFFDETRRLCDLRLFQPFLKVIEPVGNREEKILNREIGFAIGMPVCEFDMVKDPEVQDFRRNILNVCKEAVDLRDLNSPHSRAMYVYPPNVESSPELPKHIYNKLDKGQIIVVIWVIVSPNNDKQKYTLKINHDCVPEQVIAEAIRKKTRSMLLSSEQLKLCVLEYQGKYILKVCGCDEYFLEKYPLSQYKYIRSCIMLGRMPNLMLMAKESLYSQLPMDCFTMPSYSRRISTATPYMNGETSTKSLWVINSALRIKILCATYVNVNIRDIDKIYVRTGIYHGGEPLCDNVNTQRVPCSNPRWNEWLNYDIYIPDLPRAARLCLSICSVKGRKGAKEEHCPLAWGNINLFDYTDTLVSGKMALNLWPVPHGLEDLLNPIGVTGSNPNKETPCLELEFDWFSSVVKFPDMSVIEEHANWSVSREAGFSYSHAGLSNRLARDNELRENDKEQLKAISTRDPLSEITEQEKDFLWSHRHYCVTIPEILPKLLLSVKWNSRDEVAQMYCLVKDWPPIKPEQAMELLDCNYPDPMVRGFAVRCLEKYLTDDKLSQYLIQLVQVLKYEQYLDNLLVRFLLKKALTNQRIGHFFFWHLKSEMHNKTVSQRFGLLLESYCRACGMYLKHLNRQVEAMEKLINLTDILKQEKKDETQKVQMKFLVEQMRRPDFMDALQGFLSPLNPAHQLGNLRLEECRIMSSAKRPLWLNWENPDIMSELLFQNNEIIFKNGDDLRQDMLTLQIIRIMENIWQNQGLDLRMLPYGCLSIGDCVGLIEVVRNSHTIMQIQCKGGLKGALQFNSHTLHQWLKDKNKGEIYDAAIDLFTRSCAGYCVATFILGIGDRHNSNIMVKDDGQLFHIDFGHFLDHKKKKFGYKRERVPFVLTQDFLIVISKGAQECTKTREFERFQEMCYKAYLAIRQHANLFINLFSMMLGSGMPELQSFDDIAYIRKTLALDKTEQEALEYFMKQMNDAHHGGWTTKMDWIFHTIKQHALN
Chain of PI3Kα (P27986 whole entry partner): as the sequence (P27986 whole entry partner) above
From the text: as §1, §2, §3

PI3Kβ = PI3Kβ (Homo sapiens, UniProt P42338); test: Fluorescent determination of PI3Kinase enzyme activity (HTRF), PI3Kβ; assay type: biochemical
Chain of PI3Kβ (P42338 whole entry): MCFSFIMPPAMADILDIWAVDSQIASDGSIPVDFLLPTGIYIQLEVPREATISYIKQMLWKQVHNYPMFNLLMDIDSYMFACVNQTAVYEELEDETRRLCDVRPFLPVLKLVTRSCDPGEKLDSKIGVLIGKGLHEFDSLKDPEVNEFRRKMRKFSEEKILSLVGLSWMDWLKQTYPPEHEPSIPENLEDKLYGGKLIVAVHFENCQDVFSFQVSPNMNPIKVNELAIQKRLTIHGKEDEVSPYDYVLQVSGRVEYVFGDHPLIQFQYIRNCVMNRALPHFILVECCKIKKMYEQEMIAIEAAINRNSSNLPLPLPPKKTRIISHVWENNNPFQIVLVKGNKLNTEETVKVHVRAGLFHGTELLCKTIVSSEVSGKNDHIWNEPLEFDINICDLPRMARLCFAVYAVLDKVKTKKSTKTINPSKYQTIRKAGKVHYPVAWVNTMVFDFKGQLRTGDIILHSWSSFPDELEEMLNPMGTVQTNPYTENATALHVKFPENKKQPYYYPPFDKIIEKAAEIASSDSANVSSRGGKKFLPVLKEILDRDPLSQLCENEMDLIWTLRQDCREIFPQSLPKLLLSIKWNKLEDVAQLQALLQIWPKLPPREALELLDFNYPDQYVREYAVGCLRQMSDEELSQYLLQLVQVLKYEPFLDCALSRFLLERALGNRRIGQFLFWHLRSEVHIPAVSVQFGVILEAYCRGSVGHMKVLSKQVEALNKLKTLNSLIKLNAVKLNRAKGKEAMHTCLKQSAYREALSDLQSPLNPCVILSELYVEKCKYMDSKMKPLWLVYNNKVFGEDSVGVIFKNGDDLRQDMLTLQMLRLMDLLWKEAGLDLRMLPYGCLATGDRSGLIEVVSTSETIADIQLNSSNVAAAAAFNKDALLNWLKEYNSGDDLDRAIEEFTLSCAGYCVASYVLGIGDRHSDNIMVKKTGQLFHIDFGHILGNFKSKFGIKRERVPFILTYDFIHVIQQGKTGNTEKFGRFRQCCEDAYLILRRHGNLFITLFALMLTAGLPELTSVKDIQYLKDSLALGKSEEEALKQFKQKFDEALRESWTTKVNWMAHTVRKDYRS
Chain of PI3Kβ (P27986 whole entry partner): as the sequence (P27986 whole entry partner) above
From the text: as §1, §2, §3

Chain of PI3Kγ (P48736 whole entry): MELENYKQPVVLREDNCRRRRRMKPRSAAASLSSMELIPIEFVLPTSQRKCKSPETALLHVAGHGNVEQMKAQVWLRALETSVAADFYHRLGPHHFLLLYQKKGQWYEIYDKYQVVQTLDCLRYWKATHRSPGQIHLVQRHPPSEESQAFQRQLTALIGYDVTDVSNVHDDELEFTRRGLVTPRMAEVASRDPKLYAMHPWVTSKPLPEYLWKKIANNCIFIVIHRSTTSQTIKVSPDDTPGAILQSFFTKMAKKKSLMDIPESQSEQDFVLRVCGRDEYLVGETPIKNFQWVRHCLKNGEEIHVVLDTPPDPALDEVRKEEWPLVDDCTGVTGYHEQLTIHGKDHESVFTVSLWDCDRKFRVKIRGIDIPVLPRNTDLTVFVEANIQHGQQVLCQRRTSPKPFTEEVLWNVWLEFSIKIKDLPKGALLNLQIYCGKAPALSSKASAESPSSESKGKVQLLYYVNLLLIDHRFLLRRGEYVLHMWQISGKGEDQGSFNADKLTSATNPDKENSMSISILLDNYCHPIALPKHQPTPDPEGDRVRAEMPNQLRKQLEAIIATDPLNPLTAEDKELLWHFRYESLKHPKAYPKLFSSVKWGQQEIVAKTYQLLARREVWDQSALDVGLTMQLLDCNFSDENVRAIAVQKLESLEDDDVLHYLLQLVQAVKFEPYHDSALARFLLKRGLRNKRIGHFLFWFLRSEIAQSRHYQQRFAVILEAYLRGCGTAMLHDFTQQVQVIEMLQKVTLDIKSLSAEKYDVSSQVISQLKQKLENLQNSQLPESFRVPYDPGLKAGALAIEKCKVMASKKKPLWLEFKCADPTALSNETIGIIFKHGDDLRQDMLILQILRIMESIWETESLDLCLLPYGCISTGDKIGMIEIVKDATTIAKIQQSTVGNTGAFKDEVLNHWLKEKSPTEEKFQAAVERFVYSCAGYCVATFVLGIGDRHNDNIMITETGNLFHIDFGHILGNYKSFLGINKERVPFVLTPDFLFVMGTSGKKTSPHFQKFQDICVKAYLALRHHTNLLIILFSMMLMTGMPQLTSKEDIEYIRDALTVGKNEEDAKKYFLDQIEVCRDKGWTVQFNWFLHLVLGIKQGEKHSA

SMILES	inhibition at 0.1 µM (PI3Kγ) [%]	inhibition at 0.1 µM (PI3Kδ) [%]	melting point [°C]	inhibition at 1 µM (PI3Kα) [%]	inhibition at 1 µM (PI3Kβ) [%]	IC50 (PI3Kγ) [nM]	IC50 (PI3Kδ) [nM]
COc1ccc(-c2nn([C@H](C)c3cc4cccc(Cl)c4c(=O)n3-c3ccccc3)c3ncnc(N)c23)cc1NS(C)(=O)=O [Example 20b, (−)—N-(5-(4-amino-1-(1-(8-chloro-1-oxo-2-phenyl-1,2-dihydroisoquinolin-3-yl)ethyl)-1H-pyrazolo[3,4-d]pyrimidin-3-yl)-2-methoxyphenyl)methanesulfonamide]	0 to 20	20 to 40	180 to 183	0 to 10	20 to 40		
COc1ccc(-c2nn([C@H](C)c3cc4ccccc4c(=O)n3-c3ccccc3)c3ncnc(N)c23)cc1NS(C)(=O)=O [Example 9b, (−)—N-(5-(4-amino-1-(1-(1-oxo-2-phenyl-1,2-dihydroisoquinolin-3-yl)ethyl)-1H-pyrazolo[3,4-d]pyrimidin-3-yl)-2-methoxyphenyl)methanesulfonamide]	0 to 20	40 to 60	158 to 162	0 to 10	10 to 20		
Cc1n[nH]c2cc(-c3nn(C(C)c4cc5cccc(Cl)c5c(=O)n4-c4ccccc4)c4ncnc(N)c34)ccc12 (stereo not shown) [Example 21, 3-(1-(4-amino-3-(3-methyl-1H-indazol-6-yl)-1H-pyrazolo[3,4-d]pyrimidin-1-yl)ethyl)-8-chloro-2-phenylisoquinolin-1(2H)-one]	60 to 80	80 to 100	289 to 291	20 to 40	60 to 80		

The remaining lines, values ahead:

inhibition at 0.1 µM (PI3Kγ) [%]	inhibition at 0.1 µM (PI3Kδ) [%]	melting point [°C]	inhibition at 1 µM (PI3Kα) [%]	inhibition at 1 µM (PI3Kβ) [%]	IC50 (PI3Kγ) [nM]	IC50 (PI3Kδ) [nM]	SMILES
80 to 100	80 to 100	181 to 185	0 to 10	20 to 40	47.3	45.6	C[C@H](c1cc2cccc(Cl)c2c(=O)n1-c1ccccc1)n1nc(-c2ccc(OC(F)F)c(F)c2)c2c(N)ncnc21 [Example 17b, (−)-3-(1-(4-amino-3-(4-(difluoromethoxy)-3-fluorophenyl)-1H-pyrazolo[3,4-d]pyrimidin-1-yl)ethyl)-8-chloro-2-phenylisoquinolin-1(2H)-one]
0 to 20	40 to 60	232 to 235	0 to 10	60 to 80			CC(C)Oc1ccc(-c2nn([C@H](C)c3cc4ccccc4c(=O)n3-c3ccccc3)c3ncnc(N)c23)cc1F [Example 5b, (−)-3-(1-(4-amino-3-(3-fluoro-4-isopropoxyphenyl)-1H-pyrazolo[3,4-d]pyrimidin-1-yl)ethyl)-2-phenylisoquinolin-1(2H)-one]
0 to 20	20 to 40	258 to 260	0 to 10	0 to 10			C[C@H](c1cc2cccc(F)c2c(=O)n1-c1ccccc1)n1nc(-c2ccc(O)c(F)c2)c2c(N)ncnc21 [Example 15b, (−)-3-(1-(4-amino-3-(3-fluoro-4-hydroxyphenyl)-1H-pyrazolo[3,4-d]pyrimidin-1-yl)ethyl)-8-fluoro-2-phenylisoquinolin-1(2H)-one]
0 to 20	20 to 40	269 to 271	0 to 10	0 to 10			C[C@H](c1nc2cccc(F)c2c(=O)n1-c1ccccc1)n1nc(-c2ccc(O)c(F)c2)c2c(N)ncnc21 [Example 16b, (−)-2-(1-(4-amino-3-(3-fluoro-4-hydroxyphenyl)-1H-pyrazolo[3,4-d]pyrimidin-1-yl)ethyl)-5-fluoro-3-phenylquinazolin-4(3H)-one]
